Test results taken from PMC12302426, “Dihydrokoumine, a dual-target analgesic with reduced side effects isolated from a traditional Chinese medicine” (Journal of Advanced Research, 2024).
Like-named read-outs stand apart in the source and are kept apart here.

Columns and labels:
M3R = target: T1, M3R (Homo sapiens, UniProt P20309); assay: FLIPR Ca2+ antagonist assay in HEK293-M3 cells (carbachol-induced); assay type: cell-based
T1 construct: expressed in transfected cells; host or cells: HEK293 cell membranes
T1 sequence (P20309 whole entry): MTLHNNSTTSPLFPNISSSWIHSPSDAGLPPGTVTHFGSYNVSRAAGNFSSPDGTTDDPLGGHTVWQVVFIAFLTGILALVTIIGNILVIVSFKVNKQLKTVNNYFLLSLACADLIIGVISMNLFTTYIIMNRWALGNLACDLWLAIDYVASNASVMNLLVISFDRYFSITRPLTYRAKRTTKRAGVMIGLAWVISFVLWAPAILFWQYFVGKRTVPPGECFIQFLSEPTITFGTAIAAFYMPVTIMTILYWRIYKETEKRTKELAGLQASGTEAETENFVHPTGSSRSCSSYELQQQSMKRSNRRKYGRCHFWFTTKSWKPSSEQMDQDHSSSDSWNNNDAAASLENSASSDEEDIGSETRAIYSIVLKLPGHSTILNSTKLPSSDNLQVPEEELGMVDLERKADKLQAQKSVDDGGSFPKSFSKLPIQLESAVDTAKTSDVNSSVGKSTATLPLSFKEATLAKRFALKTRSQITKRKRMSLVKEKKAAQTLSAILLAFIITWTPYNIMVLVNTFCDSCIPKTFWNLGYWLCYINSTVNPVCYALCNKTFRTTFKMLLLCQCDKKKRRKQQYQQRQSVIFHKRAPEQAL
Protocol: (§1) FLIPR assay was carried out as reported earlier. Cell lines were seeded in 96-well plates with black walls (Greiner, USA) at 8.0 × 10^4 cells per well. After approximately 22 h of incubation, the cells were exposed to Calcium-6 dye (Molecular Devices, USA) in HBSS buffer supplemented with 20 mM HEPES (pH 7.4) at 37°C for one hour. Samples, redissolved in DMSO and housed in 96-well drug plates, underwent dilution with FLIPR buffer and subsequent automated introduction to the cells. […] In FLIPR antagonist experiments, cells were pre-incubated with the compound for 10 min prior to introducing a specified concentration of agonist. Results were presented as fluorescence (arbitrary units) plotted against time.

dopamine receptor D1 = target: T2, dopamine receptor D1 (Homo sapiens, UniProt P21728); assay: DMR desensitization assay, HEK293-D1, probe dopamine; assay type: cell-based; conditions: 100 μM DK
T2 construct: expressed in transfected cells; host or cells: HEK293-D1
T2 sequence (P21728 whole entry): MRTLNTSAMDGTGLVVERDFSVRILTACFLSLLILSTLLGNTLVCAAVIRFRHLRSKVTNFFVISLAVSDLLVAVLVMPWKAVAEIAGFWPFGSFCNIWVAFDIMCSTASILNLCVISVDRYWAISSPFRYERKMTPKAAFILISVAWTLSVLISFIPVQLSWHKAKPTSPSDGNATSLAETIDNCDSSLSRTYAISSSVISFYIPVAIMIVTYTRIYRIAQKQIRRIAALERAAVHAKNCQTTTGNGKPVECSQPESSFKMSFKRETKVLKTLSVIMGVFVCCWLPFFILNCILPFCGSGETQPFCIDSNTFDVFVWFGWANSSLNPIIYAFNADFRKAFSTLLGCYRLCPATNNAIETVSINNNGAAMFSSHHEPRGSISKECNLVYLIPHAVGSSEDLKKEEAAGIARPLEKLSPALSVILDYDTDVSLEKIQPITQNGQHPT
Protocol: (§2) DMR assays were performed using an Epic® BT system (Corning, NY, USA). All used cell lines were directly seeded in Epic 384-well biosensor microplates with a seeding density of 25,000 cells per well. After being cultured for about 22 h, the cells formed a monolayer with a confluency of about 95 % in the cell culture medium. Then the cells were manually washed using assay buffer (1 × HBSS buffer, 10 mM HEPES, pH = 7.4) and maintained in 30 μL of the assay buffer for 1 h. All samples were dissolved in DMSO and diluted freshly with the assay buffer containing 0.1 % BSA.
(§3) The receptor selectivity was evaluated against a set of G protein-coupled receptors (GPCRs), including opioid receptor (Delta/Kappa/NOP), dopamine receptor (D1/D2), orphan receptor (GPR35), adrenergic receptor (α2A/β2), serotonin receptor (5HT2A), histamine receptor (H1) and cannabinoid receptor (CB1). Following a 1-hour pretreatment with DK, a 2-min baseline was established before introducing probes and monitoring DMR signals for another hour. The cells and probes were as follows: Delta, HEK293-Delta, SNC162; Kappa, HEK293-Kappa, ICI199441; NOP, HEK293-NOP, MCOPPB; D1, HEK293-D1, dopamine; D2, HEK293-D2, dopamine; GPR35, CHO-K1-hGPR35, zaprinast; 5HT2A, HEK293-5HT2A, 5-hydroxytryptamine; α2A, HEK293-α2A, L-Noradrenaline; β2, A431, isoprenaline; H1, A431, histamine; CB1, CHO-K1-CB1, CP 55940. […]

dopamine receptor D2 = target: T3, dopamine receptor D2 (Homo sapiens, UniProt P14416); assay: DMR desensitization assay, HEK293-D2, probe dopamine; assay type: cell-based; conditions: 100 μM DK
T3 construct: expressed in transfected cells; host or cells: HEK293-D2
T3 sequence (P14416 whole entry): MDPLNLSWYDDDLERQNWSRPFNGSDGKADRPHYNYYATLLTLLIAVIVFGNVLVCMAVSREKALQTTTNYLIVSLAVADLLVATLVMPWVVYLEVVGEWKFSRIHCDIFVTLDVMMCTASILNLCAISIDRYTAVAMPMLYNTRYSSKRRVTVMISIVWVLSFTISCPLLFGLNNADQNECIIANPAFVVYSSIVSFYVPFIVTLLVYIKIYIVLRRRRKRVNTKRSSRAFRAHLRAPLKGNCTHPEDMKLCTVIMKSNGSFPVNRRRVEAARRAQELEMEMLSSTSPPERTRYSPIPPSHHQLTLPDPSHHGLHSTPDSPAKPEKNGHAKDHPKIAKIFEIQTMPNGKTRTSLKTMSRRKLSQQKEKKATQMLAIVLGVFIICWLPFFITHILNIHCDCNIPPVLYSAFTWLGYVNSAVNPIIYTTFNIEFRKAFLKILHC
Protocol: as §2, §3

HUVEC cells = assay: Cytotoxicity assay (CCK-8), HUVEC; assay type: cell-based; conditions: 24 h
Protocol: (§4) HEK293T, CHO, and HUVEC cell lines were cultured overnight in 96-well plates before exposure to compounds for 24 h. Cell viability was evaluated using the Cell Counting Kit-8 (CCK-8, Beyotime Biotechnology, China), and absorbance at 450 nm was measured with a microplate reader. Cell survival rates were calculated relative to control conditions.

Delta opioid receptor = target: T4, Delta opioid receptor (Homo sapiens, UniProt P41143); assay: DMR agonist and desensitization assay in HEK293-Delta cells; assay type: cell-based
T4 construct: expressed in transfected cells; host or cells: HEK293-Delta
T4 sequence (P41143 whole entry): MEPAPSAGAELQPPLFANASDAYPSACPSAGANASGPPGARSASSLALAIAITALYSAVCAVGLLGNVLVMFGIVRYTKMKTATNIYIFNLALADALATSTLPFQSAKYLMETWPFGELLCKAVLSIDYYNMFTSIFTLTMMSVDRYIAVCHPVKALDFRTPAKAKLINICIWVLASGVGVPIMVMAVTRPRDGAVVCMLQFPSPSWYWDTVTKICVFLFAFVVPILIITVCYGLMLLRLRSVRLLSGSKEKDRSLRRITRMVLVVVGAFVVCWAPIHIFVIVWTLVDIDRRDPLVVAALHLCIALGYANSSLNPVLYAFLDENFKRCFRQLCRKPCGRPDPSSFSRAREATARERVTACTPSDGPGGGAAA
Protocol: as §2
(§5) The DMR assays were conducted as follows. […] In the case of the DMR desensitization assay, cells were pretreated with analytes for one hour before introducing a specific agonist at the indicated concentration, and the agonist-induced DMR signals were monitored for one hour. Finally, for the DMR antagonist assay, cells underwent a 1-hour pretreatment with an antagonist before the addition of a specific agonist at the indicated concentration, and subsequent DMR signals were recorded over one hour.
(§6) The receptor selectivity was evaluated against a set of G protein-coupled receptors (GPCRs), including opioid receptor (Delta/Kappa/NOP), dopamine receptor (D1/D2), orphan receptor (GPR35), adrenergic receptor (α2A/β2), serotonin receptor (5HT2A), histamine receptor (H1) and cannabinoid receptor (CB1). Following a 1-hour pretreatment with DK, a 2-min baseline was established before introducing probes and monitoring DMR signals for another hour. The cells and probes were as follows: Delta, HEK293-Delta, SNC162; Kappa, HEK293-Kappa, ICI199441; NOP, HEK293-NOP, MCOPPB; D1, HEK293-D1, dopamine; D2, HEK293-D2, dopamine; GPR35, CHO-K1-hGPR35, zaprinast; 5HT2A, HEK293-5HT2A, 5-hydroxytryptamine; α2A, HEK293-α2A, L-Noradrenaline; β2, A431, isoprenaline; H1, A431, histamine; CB1, CHO-K1-CB1, CP 55940. The other detailed process was the same as above.

Kappa opioid receptor = target: T5, Kappa opioid receptor (Homo sapiens, UniProt P41145); assay: DMR agonist and desensitization assay in HEK293-Kappa cells; assay type: cell-based
T5 construct: expressed in transfected cells; host or cells: HEK293-Kappa
T5 sequence (P41145 whole entry): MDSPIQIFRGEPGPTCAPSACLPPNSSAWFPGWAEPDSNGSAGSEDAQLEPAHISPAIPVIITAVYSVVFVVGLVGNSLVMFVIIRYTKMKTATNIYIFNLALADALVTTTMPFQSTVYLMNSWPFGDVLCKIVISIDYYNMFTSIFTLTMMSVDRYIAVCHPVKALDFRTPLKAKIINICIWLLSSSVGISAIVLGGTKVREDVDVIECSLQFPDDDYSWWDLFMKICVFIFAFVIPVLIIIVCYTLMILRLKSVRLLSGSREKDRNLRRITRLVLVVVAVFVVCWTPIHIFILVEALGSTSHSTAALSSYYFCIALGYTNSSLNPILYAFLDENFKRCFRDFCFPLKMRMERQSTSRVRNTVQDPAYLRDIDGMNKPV
Protocol: as §2, §5, §6

M2R = target: T6, M2R (Homo sapiens, UniProt P08172); assay: FLIPR assay in HEK293-M2 cells (carbachol-induced Ca2+); assay type: cell-based; conditions: DK pretreatment one hour
T6 construct: expressed in transfected cells
T6 sequence (P08172 whole entry): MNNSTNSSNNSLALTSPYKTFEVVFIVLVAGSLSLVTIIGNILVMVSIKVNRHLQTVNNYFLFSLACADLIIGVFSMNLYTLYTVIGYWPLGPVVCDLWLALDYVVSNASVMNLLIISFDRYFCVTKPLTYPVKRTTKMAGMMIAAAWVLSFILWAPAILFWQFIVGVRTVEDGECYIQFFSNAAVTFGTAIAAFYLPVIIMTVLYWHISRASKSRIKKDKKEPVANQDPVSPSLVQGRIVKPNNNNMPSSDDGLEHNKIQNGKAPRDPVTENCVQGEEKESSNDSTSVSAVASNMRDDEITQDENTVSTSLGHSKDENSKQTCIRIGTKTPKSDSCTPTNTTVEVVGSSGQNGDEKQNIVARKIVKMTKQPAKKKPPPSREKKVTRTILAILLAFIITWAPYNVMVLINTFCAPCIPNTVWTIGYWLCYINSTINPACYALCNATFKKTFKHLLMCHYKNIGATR
Protocol: as §1, with “In FLIPR antagonist experiments, cells were pre-incubated with the compound for 10 min prior to introducing a specified concentration of agonist.” left out

[1] = Pharmacokinetics, oral bioavailability; assay type: in vivo, SD male rats; conditions: rats, 20 mg/kg (method)
Protocol: Oral bioavailability evaluation was as follows. SD male rats (about 250 g) were used in bioavailability evaluation (n = 3). […] were given a single dose of DK (20 mg/kg, 5 mL/kg, […].) through intragastric administration or tail vein injection. Blood (300 μL) was collected at 0.083, 0.167, 0.25, 0.5, 1, 2, 4, 6, 8, and 10 h, into EDTA tubes. Plasma was obtained by mixing with acetonitrile and centrifugation (3000 r/min, 10 min).
Brain and plasma drug levels were measured by LC-30AD (Shimadzu Corporation Kyoto, Japan) and SCIEX QTRAP-6500 (AB Sciex, Foster City, CA, USA) and calculated by comparing with internal standard (koumine, 200 ng/mL). The used column was Waters ACQUITY UPLC BEH C18 (2.1*150 mm, 1.7 μm); the mobile phase was composed of (A) 0.1 % FA in water and (B) 0.1 % FA in ACN; the elution gradient was 20 % B (0–3 min), 20–40 % B (3–5 min), 40–95 % B (5–6 min); the flow rate was 0.3 mL/min; and detection was in the positive mode.

HEK293T cells = assay: Cytotoxicity assay (CCK-8), HEK293T; assay type: cell-based; conditions: 24 h
Protocol: as §4

[2] = target: T7, serotonin receptor 5-HT2A (Homo sapiens, UniProt P28223); assay: DMR desensitization assay, HEK293-5HT2A, probe 5-hydroxytryptamine; assay type: cell-based; conditions: 100 μM DK
T7 construct: expressed in transfected cells; host or cells: HEK293-5HT2A
T7 sequence (P28223 whole entry): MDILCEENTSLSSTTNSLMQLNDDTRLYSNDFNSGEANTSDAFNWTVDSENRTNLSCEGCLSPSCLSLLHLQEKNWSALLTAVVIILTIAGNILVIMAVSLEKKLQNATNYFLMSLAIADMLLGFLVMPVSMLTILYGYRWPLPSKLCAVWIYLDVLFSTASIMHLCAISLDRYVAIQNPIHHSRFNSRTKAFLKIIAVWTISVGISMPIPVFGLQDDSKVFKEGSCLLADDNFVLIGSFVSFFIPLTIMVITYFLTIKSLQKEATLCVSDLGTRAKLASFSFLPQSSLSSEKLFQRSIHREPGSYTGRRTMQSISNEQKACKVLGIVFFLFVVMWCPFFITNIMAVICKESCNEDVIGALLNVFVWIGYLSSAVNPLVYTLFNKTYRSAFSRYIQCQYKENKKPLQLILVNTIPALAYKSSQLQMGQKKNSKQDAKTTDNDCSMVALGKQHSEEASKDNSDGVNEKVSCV
Protocol: as §2, §3

M4R = target: T8, M4R (Homo sapiens, UniProt P08173); assay: FLIPR assay in HEK293-M4 cells (carbachol-induced Ca2+); assay type: cell-based; conditions: DK pretreatment one hour
T8 construct: expressed in transfected cells
T8 sequence (P08173 whole entry): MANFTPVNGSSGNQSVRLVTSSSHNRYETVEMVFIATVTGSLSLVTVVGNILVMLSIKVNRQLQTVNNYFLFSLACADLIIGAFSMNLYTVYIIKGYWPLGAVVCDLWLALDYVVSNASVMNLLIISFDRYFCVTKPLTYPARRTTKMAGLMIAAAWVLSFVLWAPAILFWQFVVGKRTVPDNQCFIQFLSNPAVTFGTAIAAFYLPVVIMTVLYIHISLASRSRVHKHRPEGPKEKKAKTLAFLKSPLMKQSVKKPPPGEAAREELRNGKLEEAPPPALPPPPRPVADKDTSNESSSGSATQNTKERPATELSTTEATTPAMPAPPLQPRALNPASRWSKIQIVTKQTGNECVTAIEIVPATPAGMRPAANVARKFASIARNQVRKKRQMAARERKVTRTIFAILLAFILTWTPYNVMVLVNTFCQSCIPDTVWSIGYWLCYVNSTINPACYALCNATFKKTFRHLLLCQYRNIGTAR
Protocol: as §1, with “In FLIPR antagonist experiments, cells were pre-incubated with the compound for 10 min prior to introducing a specified concentration of agonist.” left out

## C=CC12CN(C)C3CC14c1ccccc1NC4C1CC2C3CO1 (stereo not shown) [DK]
M3R; FLIPR, 5 nM carbachol (Fig. 2D), read-out: IC50 for inhibition of carbachol-induced Ca2+ response
  IC50: 11.6 ± 4.31 µM
M3R; semisynthesized material
  concentration-dependent inhibition of carbachol-induced Ca2+ response at M3R compared with purified DK: its activity was close to that of purified DK
Dopamine receptor D1
  reduction of probe DMR response (desensitization): almost unable to reduce the response
Dopamine receptor D2
  reduction of probe DMR response (desensitization): almost unable to reduce the response
HUVEC cells
  cytotoxicity (cell viability): noncytotoxic
Delta opioid receptor; HEK293-Delta cells
  DMR agonist response: unable to trigger a concentration-dependent DMR response
Delta opioid receptor; HEK293-Delta, 2.5 μM SNC162, pretreatment one hour
  probe-induced DMR response after DK pretreatment: had little effect on the DMR response produced by the respective probes
Delta opioid receptor; HEK293-Delta, SNC162, high-concentration of DK
  antagonist effect at high concentration (decrease of probe DMR response): very weak antagonist effects
Kappa opioid receptor; HEK293-Kappa cells
  DMR agonist response: unable to trigger a concentration-dependent DMR response
Kappa opioid receptor; HEK293-Kappa, 25 nM ICI199441, pretreatment one hour
  probe-induced DMR response after DK pretreatment: had little effect on the DMR response produced by the respective probes
Kappa opioid receptor; HEK293-Kappa, ICI199441, high-concentration of DK
  antagonist effect at high concentration (decrease of probe DMR response): very weak antagonist effects
M2R
  inhibition of carbachol-induced Ca2+ response: could not concentration-dependently inhibit
[1]; male, SD (Sprague-Dawley), rat, iv, plasma, i.v., read-out: (AUC)0-12 h, intravenous injection
  AUC: 902 ng·h/mL
[1]; male, SD (Sprague-Dawley), rat, plasma, oral, i.g. vs i.v.
  bioavailability: 42.6%
[1]; male, SD (Sprague-Dawley), rat, po, plasma, i.g., read-out: (AUC)0-12 h, intragastric administration
  AUC: 384 ng·h/mL
[1]; intragastric (i.g.) administration
  time of highest plasma concentration: 15 min
HEK293T cells
  cytotoxicity (cell viability): had a little effect on HEK293T cells but not in a concentration-dependent manner
[2]
  reduction of probe DMR response (desensitization): almost unable to reduce the response
M4R
  inhibition of carbachol-induced Ca2+ response: could not concentration-dependently inhibit
